Data as given in the CheMixHub ionic liquid set.

Test: xn = mol fraction of the nth substance listed

CCCCCC[n+]1ccn(C)c1.F[B-](F)(F)F + CN(CCO)CCO
101 kPa
Details | viscosity [mPa·s]
303.15 K, x2 = 0.3916 | 72.6
303.15 K, x2 = 0.4949 | 69.8
303.15 K, x2 = 0.7928 | 62.2
313.15 K, x2 = 0.5936 | 41.8
313.15 K, x2 = 0.8824 | 36.8
318.15 K, x2 = 0.4949 | 34.3

COP(=O)([O-])OC.Cn1cc[n+](C)c1 + CN(CCO)CCO + O
Details | viscosity [mPa·s]
343.15 K, x2 = 0.4346, x3 = 0.3656 | 10.65

COP(=O)([O-])OC.Cn1cc[n+](C)c1 + CO
Details | viscosity [mPa·s]
293.15 K, 101 kPa, x2 = 0.6018 | 20.02
293.15 K, 101 kPa, x2 = 0.8998 | 1.927
298.15 K, 101 kPa, x2 = 0 | 291
298.15 K, 101 kPa, x2 = 0.2977 | 86.2
298.15 K, 101 kPa, x2 = 0.3984 | 54.2
303.15 K, 101 kPa, x2 = 0.2009 | 95.3
303.15 K, 101 kPa, x2 = 0.5028 | 24.98
308.15 K, 101 kPa, x2 = 0.5028 | 21.1
308.15 K, 101.33 kPa, x2 = 0 | 139.5
318.15 K, 101 kPa, x2 = 0.1054 | 71.5
318.15 K, 101 kPa, x2 = 0.7027 | 5.83
323.15 K, 101 kPa, x2 = 0.2977 | 31.01
323.15 K, 101 kPa, x2 = 0.5028 | 13.63

CCCCCCCC[P+](CC)(CC)CC.O=[N+]([O-])c1cn[n-]c1 + COCCOCCOCCOCCOC
100 kPa
Details | viscosity [mPa·s]
278.15 K, x2 = 0.503 | 78
283.15 K, x2 = 0 | 868
283.15 K, x2 = 0.404 | 97
288.15 K, x2 = 0 | 578
288.15 K, x2 = 0.102 | 327
303.15 K, x2 = 0.051 | 170
308.15 K, x2 = 0.199 | 69
313.15 K, x2 = 0.199 | 55
318.15 K, x2 = 0 | 94

COP(=O)([O-])OC.Cn1cc[n+](C)c1 + CS(C)=O
viscosity [mPa·s], 101 kPa
Details | 298.15 K | 313.15 K | 333.15 K
x1 = 0.1773 | 7.7 | 4.8 | 3.1
x1 = 0.4972 | 42.7 | 22.6 | 11.9
x1 = 0.7978 | 134.7 | 59.6 | 26.7
